From patent US9339503B2, “Tetrahydro-quinazolinone derivatives as TANK and PARP inhibitors” (MERCK PATENT GMBH, priority 2012, dated 2016)

Legend:
tankyrase 1/2 = assay: Measurement of cellular inhibition of tankyrase (Axin2 level, Luminex based assay, DLD1 cells); details: 24 hours, increase of Axin2 level, read-out: EC50 tankyrase 1/2 (cell assay)
Method: Measurement of Cellular Inhibition of Tankyrase
Since Tankyrases have been described to modulate cellular level of Axin2 (Huang et al., 2009; Nature) the increase of Axin2 level is used as read-out for determination of cellular inhibition of Tankyrases in a Luminex based assay.
Cells of the colon carcinoma cell line DLD1 are plated in 96 well plates with 1.5×10^4 cells per well. Next day, cells are treated with a serial-dilution of test compound in seven steps as triplicates with a final DMSO concentration of 0.3%. After 24 hours, cells are lysed in lysis buffer (20 mM Tris/HCl pH 8.0, 150 mM NaCl, 1% NP40, 10% Glycerol) and lysates are cleared by centrifugation through a 96 well filter plate (0.65 μm). Axin2 protein is isolated from cell lysates by incubation with a monoclonal anti-Axin2 antibody (R&D Systems #MAB6078) that is bound to fluorescent carboxybeads. Then, bound Axin2 is specifically detected with a polyclonal anti-Axin2 antibody (Cell Signaling #2151) and an appropriate PE-fluorescent secondary antibody. The amount of isolated Axin2 protein is determined in a Luminex^200 machine (Luminex Corporation) according to the manufacturer's instruction by counting 100 events per well. […] For analysis, the obtained data were normalized against the untreated solvent control and fitted for determination of the EC50 values using the Assay Explorer software (Accelrys).

[1] = biological target: T1, GST-tagged Tankyrase-1 (1023-1327 aa) (Homo sapiens, UniProt O95271); assay: Tankyrase 1 autoparsylation assay (HTRF enzyme assay); type: biochemical
T1 construct: GST-tagged Tankyrase-1 (1023-1327 aa)
T1 sequence (O95271 1023-1327): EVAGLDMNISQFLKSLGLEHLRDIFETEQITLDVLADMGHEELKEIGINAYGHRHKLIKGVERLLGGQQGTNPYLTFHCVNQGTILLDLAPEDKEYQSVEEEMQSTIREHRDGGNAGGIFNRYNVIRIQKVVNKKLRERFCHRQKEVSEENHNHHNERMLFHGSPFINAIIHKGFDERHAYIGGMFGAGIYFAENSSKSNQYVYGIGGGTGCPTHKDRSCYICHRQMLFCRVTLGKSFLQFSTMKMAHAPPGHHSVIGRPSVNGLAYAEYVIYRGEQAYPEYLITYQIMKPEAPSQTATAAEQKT
Method: (§1) The autoparsylation assay was run in two steps: the enzymatic reaction in which GST-tagged Tankyrase-1, resp Tankyrase-2 transferred biotinylated ADP-ribose to itself from biotinylated NAD as co-substrate and the detection reaction where a time resolved FRET between cryptate labelled anti-GST bound to the GST tag of the enzyme and Xlent® labelled-streptavidin bound the biotin-parsylation residue was analysed. The autoparsylation activity was detectable directly via the increase in HTRF signal.
(§2) The autoparsylation assay was performed as 384-well HTRF® (Cisbio, Codolet, France) assay format in Greiner low volume nb 384-well microtiter plates and was used for high throughput screen. 250 nM GST-tagged Tankyrase-1 (1023-1327 aa), respectively about 250 nM GST-tagged Tankyrase-2 (873-1166 aa) and 5 μM bio-NAD (Biolog, Life science Inst., Bremen, Germany) as co-substrate were incubated in a total volume of 5 μl (50 mM HEPES, 4 mM Mg-chloride, 0.05% Pluronic F-68, 1.4 mM DTT, 0.5% DMSO, pH 7.7) in the absence or presence of the test compound (10 dilution concentrations) for 90 min at 30° C. The reaction was stopped by the addition of 1 μl 50 mM EDTA solution. 2 μl of the detection solution (1.6 μM SA-Xlent® (Cisbio, Codolet, France), 7.4 nM Anti-GST-K® (Eu-labelled anti-GST, Cisbio, Codolet, France) in 50 mM HEPES, 800 mM KF, 0.1% BSA, 20 mM EDTA, 0.1% CHAPS, pH 7.0) were added. After 1 h incubation at room temperature the HTRF was measured with an Envision multimode reader (Perkin Elmer LAS Germany GmbH) at excitation wavelength 340 nm (laser mode) and emission wavelengths 615 nm and 665 nm. The ratio of the emission signals was determined. The full value used was the inhibitor-free reaction. The pharmacological zero value used was XAV-939 (Tocris) in a final concentration of 5 μM. The inhibitory values (IC50) were determined using either the program Symyx Assay Explorer® or Condosseo® from GeneData.

[2] = biological target: T2, GST-tagged Tankyrase-2 (873-1166 aa) (Homo sapiens, UniProt Q9H2K2); assay: Tankyrase 2 autoparsylation assay (HTRF enzyme assay); type: biochemical
T2 construct: GST-tagged Tankyrase-2 (873-1166 aa)
T2 sequence (Q9H2K2 873-1166): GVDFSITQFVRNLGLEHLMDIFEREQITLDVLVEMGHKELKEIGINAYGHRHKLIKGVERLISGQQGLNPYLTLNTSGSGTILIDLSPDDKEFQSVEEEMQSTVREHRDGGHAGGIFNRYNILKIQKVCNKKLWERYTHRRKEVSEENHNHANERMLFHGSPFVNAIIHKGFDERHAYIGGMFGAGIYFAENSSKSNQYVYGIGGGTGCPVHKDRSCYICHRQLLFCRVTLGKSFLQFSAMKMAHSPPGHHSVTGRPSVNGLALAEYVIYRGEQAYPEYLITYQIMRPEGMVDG
Method: as §1, §2

[3] = biological target: T3, GST-tagged Tnks-1 (1023-1327 aa) (Homo sapiens, UniProt O95271); assay: TNKS 1 activity ELISA (autoparsylation assay); type: biochemical; details: read-out: IC50 tankyrase 1 (ELISA assay)
T3 construct: GST-tagged Tnks-1 (1023-1327 aa, prepared in-house); made in house
T3 sequence (O95271 1023-1327): as the sequence (O95271 1023-1327) above
Method: (§3) Biochemical Activity Testing of TNKS 1 and 2: Activity ELISA (Autoparsylation Assay)
(§4) For analysis of autoparsylation activity of TNKS 1 and 2 an activity ELISA was performed: In the first step GST tagged TNKS was captured on a Glutathione coated plate. Then the activity assay with biotinylated NAD was performed in the absence/presence of the compounds. During the enzymatic reaction GST tagged TNKS transferred biotinylated ADP-ribose to itself from biotinylated NAD as co-substrate. For the detection streptavidin-HRP conjugate was added that bound to the biotinylated TNKS and was thereby captured to the plates. The amount of biotinylated resp autoparsylated TNKS was detected with a luminescence substrate for HRP. The level of the luminescence signal correlated directly with the amount of autoparsylated TNKS and therefore with activity of TNKS.
(§5) The activity ELISA was performed in 384 well Glutathione coated microtiter plates (Express capture Glutathione coated plate, Biocat, Heidelberg, Germany). The plates were pre-equilibrated with PBS. Then the plates were incubated with 50 μl 20 ng/well GST-tagged Tnks-1 (1023-1327 aa, prepared in-house), respectively GST-tagged Tnks-2 (873-1166 aa, prepared in-house) in assay buffer (50 mM HEPES, 4 mM Mg-chloride, 0.05% Pluronic F-68, 2 mM DTT, pH 7.7) overnight at 4° C. The plates were washed 3 times with PBS-Tween-20. The wells were blocked by incubation at room temperature for 20 minutes with 50 μl blocking buffer (PBS, 0.05% Tween-20, 0.5% BSA). Afterwards the plates were washed 3 times with PBS-Tween-20. The enzymatic reaction was performed in 50 μl reaction solution (50 mM HEPES, 4 mM Mg-chloride, 0.05% Pluronic F-68, 1.4 mM DTT, 0.5% DMSO, pH 7.7) with 10 μM bio-NAD (Biolog, Life science Inst., Bremen, Germany) as co-substrate in the absence or presence of the test compound (10 dilution concentrations) for 1 hour at 30° C. The reaction was stopped by 3 times washing with PBS-Tween-20. For the detection 50 μl of 20 ng/μl Streptavidin, HRP conjugate (MoBiTec, Göttingen, Germany) in PBS/0.05% Tween-20/0.01% BSA were added and the plates were incubated for 30 minutes at room temperature. After three times washing with PBS-Tween-20 50 μl of SuperSignal ELISA Femto Maximum sensitivity substrate solution (ThermoFisherScientific (Pierce), Bonn, Germany) were added. Following a 1 minute incubation at room temperature luminescence signals were measured with an Envision multimode reader (Perkin Elmer LAS Germany GmbH) at 700 nm. The full value used was the inhibitor-free reaction. The pharmacological zero value used was XAV-939 (Tocris) in a final concentration of 5 μM. The inhibitory values (IC50) were determined using either the program Symyx Assay Explorer® or Condosseo® from GeneData.

[4] = biological target: T4, GST-tagged Tnks-2 (873-1166 aa) (Homo sapiens, UniProt Q9H2K2); assay: TNKS 2 activity ELISA (autoparsylation assay); type: biochemical; details: read-out: IC50 tankyrase 2 (ELISA assay)
T4 construct: GST-tagged Tnks-2 (873-1166 aa, prepared in-house); made in house
T4 sequence (Q9H2K2 873-1166): as the sequence (Q9H2K2 873-1166) above
Method: as §3, §4, §5

Structure (SMILES)	EC50 (tankyrase 1/2) [µM]	IC50 [1] [µM]	IC50 [2] [µM]	IC50 [3] [µM]	IC50 [4] [µM]
O=c1[nH]c(N2CCN(c3cccc(F)c3)CC2)nc2c1CCCC2 [Compound A5, 2-[4-(3-Fluorophenyl)piperazin-1-yl]-5,6,7,8-tetrahydro-3H-quinazolin-4-one]	3 to 50	0.3 to 3	0.3 to 3	< 0.3	< 0.3
O=c1[nH]c(N2CCN(c3ccc(Cl)cc3)CC2)nc2c1CCCC2 [Compound A8, 2-[4-(4-Chlorophenyl)piperazin-1-yl]-5,6,7,8-tetrahydro-3H-quinazolin-4-one]	3 to 50	0.3 to 3	0.3 to 3	< 0.3	< 0.3
CC(C)(C)N1CCN(c2nc3c(c(=O)[nH]2)CCCC3)CC1 [Compound A13, 2-(4-tert-Butylpiperazin-1-yl)-5,6,7,8-tetrahydro-3H-quinazolin-4-one]	3 to 50	0.3 to 3	0.3 to 3		
COc1ccc(N2CCN(c3nc4c(c(=O)[nH]3)CCCC4)CC2=O)cc1 [Compound A14, 2-[4-(4-Methoxyphenyl)-3-oxopiperazin-1-yl]-5,6,7,8-tetrahydro-3H-quinazolin-4-one]	3 to 50	3 to 50	3 to 50		
O=C(N1CCCCC1)N1CCN(c2nc3c(c(=O)[nH]2)CCCC3)CC1 [Compound A15, 2-[4-(Piperidine-1-carbonyl)piperazin-1-yl]-5,6,7,8-tetrahydro-3H-quinazolin-4-one]	3 to 50	3 to 50	3 to 50		
O=c1[nH]c(N2CCN(c3cccc(O)n3)CC2)nc2c1CCCC2 [Compound A16, 2-[4-(6-Hydroxypyridin-2-yl)piperazin-1-yl]-5,6,7,8-tetrahydro-3H-quinazolin-4-one]	3 to 50	3 to 50	3 to 50		
O=C(c1ccccc1)N1CCN(c2nc3c(c(=O)[nH]2)CCCC3)CC1 [Compound A17, 2-(4-Benzoylpiperazin-1-yl)-5,6,7,8-tetrahydro-3H-quinazolin-4-one]		3 to 50	3 to 50		
O=C(CN1CCN(c2nc3c(c(=O)[nH]2)CCCC3)CC1)Nc1ccccn1 [Compound A18, N-pyridin-2-yl-2-[4-(4-oxo-3,4,5,6,7,8-hexahydroquinazolin-2-yl)piperazin-1-yl]-acetamide]	3 to 50	0.3 to 3	0.3 to 3		
O=C(N1CCOCC1)N1CCN(c2nc3c(c(=O)[nH]2)CCCC3)CC1 [Compound A20, 2-[4-(Morpholine-4-carbonyl)piperazin-1-yl]-5,6,7,8-tetrahydro-3H-quinazolin-4-one]	3 to 50	3 to 50	3 to 50		
O=c1[nH]c(N2CCN(CCO)CC2)nc2c1CCCC2 [Compound A25, 2-[4-(2-hydroxyethyl)piperazin-1-yl]-5,6,7,8-tetrahydro-3H-quinazolin-4-one]		3 to 50	3 to 50		
O=c1[nH]c(N2CCN(CCc3ccccn3)CC2)nc2c1CCCC2 [Compound A26, 2-[4-[2-(2-pyridyl)ethyl]piperazin-1-yl]-5,6,7,8-tetrahydro-3H-quinazolin-4-one]		0.3 to 3	0.3 to 3		
O=c1[nH]c(N2CCN(c3cccnc3)CC2)nc2c1CCCC2 [Compound A32, 2-[4-(3-pyridyl)piperazin-1-yl]-5,6,7,8-tetrahydro-3H-quinazolin-4-one]		0.3 to 3	0.3 to 3		
O=c1[nH]c(N2CCC(O)(c3ccccc3)CC2)nc2c1CCCC2 [Compound A35, 2-(4-hydroxy-4-phenyl-1-piperidyl)-5,6,7,8-tetrahydro-3H-quinazolin-4-one]	0.3 to 3	0.3 to 3	0.3 to 3		
CC(C)Oc1ccccc1N1CCN(c2nc3c(c(=O)[nH]2)CCCC3)CC1 [Compound A42, 2-[4-(2-isopropoxyphenyl)piperazin-1-yl]-5,6,7,8-tetrahydro-3H-quinazolin-4-one]		0.3 to 3	0.3 to 3		
O=c1[nH]c(N2CCN(c3ccccc3OC(F)(F)F)CC2)nc2c1CCCC2 [Compound A43, 2-[4-[2-(trifluoromethoxy)phenyl]piperazin-1-yl]-5,6,7,8-tetrahydro-3H-quinazolin-4-one]		0.3 to 3	3 to 50		
N#CCc1ccc(N2CCN(c3nc4c(c(=O)[nH]3)CCCC4)CC2)cc1 [Compound A46, 2-[4-[4-(4-oxo-5,6,7,8-tetrahydro-3H-quinazolin-2-yl)piperazin-1-yl]phenyl] acetonitrile]		0.3 to 3	0.3 to 3		
CCOc1ccc(N2CCN(c3nc4c(c(=O)[nH]3)CCCC4)CC2)cc1 [Compound A48, 2-[4-(4-ethoxyphenyl)piperazin-1-yl]-5,6,7,8-tetrahydro-3H-quinazolin-4-one]		0.3 to 3	0.3 to 3	< 0.3	< 0.3
O=c1[nH]c(N2CCN(c3ccc(C(F)(F)F)cc3)CC2)nc2c1CCCC2 [Compound A50, 2-[4-(4-trifluoromethylphenyl)piperazin-1-yl]-5,6,7,8-tetrahydro-3H-quinazolin-4-one]		0.3 to 3	0.3 to 3		
COc1ccc(C2(O)CCN(c3nc4c(c(=O)[nH]3)CCCC4)CC2)cc1 [Compound A53, 2-[4-hydroxy-4-(4-methoxy-phenyl)-piperidin-1-yl]-5,6,7,8-tetrahydro-3H-quinazolin-4-one]	0.3 to 3	0.3 to 3	0.3 to 3		
